Legend:
[1] = background statement; cited from earlier work
Wistar rats = assay: Antipsychotic action test: phencyclidine-induced locomotor activity and stereotypy (method of Sturgen et al.); format: in vivo; details: for Locomotor activity score / Stereotypy score: 10 min before phencyclidine 10 mg/kg i.p., 30 minutes, grades 0-5; for Dose dependence of locomotor activity and stereotypy score: 30 minutes after pretreatment and dosage of phencyclidine; for Control of locomotor activity and stereotypy score: group dosed 100 mg/kg; for Statistical significance of lowering of locomotor activity and stereotypy score: group dosed more than 50 mg/kg, P<0.01; for Effect on locomotor activity and stereotypy score compared with NMD-Ser and NMD-Ala: phencyclidine-dosed rats, dose not stated
Method: (§1) Method: the action of antipsychotic was estimated by a method of Sturgen et al. (Eur. J. Pharmacol 76, 37-53, 1981). Namely, medicines suspended in 0.1% Tween 80 were dosed in the abdomen of Wistar rats (Weight: 200-250 g, 6 rats/group). After ten minutes, phencyclidine dissolved in physiological saline (10 mg/kg) was dosed intraperitoneally. After ten minutes, locomotor activity and stereotypy score were estimated at intervals of 20 minutes by 6 grades.
1. Sometimes, movement within localized area of cage.
2. Movement over a small area of cage, intermittent activity emitted at a low-moderate rate.
3. Movement over a small area of cage, activity emitted continuously and at a moderate-rapid rate.
4. Movement over a large area of cage, activety is intermittent and emitted at a low-moderate rate.
5. Movement over a large area of cage, activety is emitted continuously and at a moderate-rapid rate.
1. Locomotor activity, sniffing and grooming more frequent than observed for control.
2. Higher frequency of sniffing, rearing or turning than in 1.
3. Moderate rate and intermittent sniffing, rearing, turning or backpedaling.
4. Rapid rate and continuous turning, backpedaling, sniffing.
5. Dyokinetic extension and flexion of limbs, head and neck.

GABA system = details: via a GABA system; Japanese Patent Publications; Biochemical Pharmacol., 32, 2751-2755, 1983; cited from earlier work
glycine binding site = assay: Intracranial administration with 7-chlorokynurenic acid, phencyclidine-induced locomotor activity and stereotypy; format: in vivo, rats; details: 200 mg/kg with 7-chlorokynurenic acid (allosteric antagonist of glycine binding site) dosed in the brain
Method: as §1
Rats were anesthetized with pentobarbital (40 mg/kg, intruperitoneally) and mounted on a stereotaxic frame. For the intracranical administration of 7-chlorokynurenicocid, the guide cannulae were fixed to the skull. Beginning 5-7 days after surgery, bilateral intracranial injections were performed in the non-anesthetized rats with cannulae attached by poly ethylene tubes to two 10 μl Hamilton syringes. The injection site was A.P. -0.8 (anterior to bregma), V. +2.0, L.±1.5 according to the atlas of Paxinos and Watson (1982). The medicine 5 μl was injected in four minutes a minute after inserting the needle. After the injection the injection needle was kept in the brain for five minutes and removed. After ten minutes from the beginning of the injection, phencyclidine was dosed intraperitoneally.

[2] = dosed in a living body; background statement; cited from earlier work

## CN(C)CCCN1c2ccccc2Sc2ccc(Cl)cc21 [chlorpromazine]
[1]
  Side effect: unsatisfactorily side effect, for example, myogelosis, mouth dry, sleepiness and constipation

## CCCCCCCCCCCCCC(=O)N[C@H](C)C(=O)O [NMD-Ala, N-myristoyl-D-alanine]
Wistar rats; 1 mg/kg i.p.
  Locomotor activity score: 2.8 ± 0.2
  Stereotypy score: 3.0 ± 0.4
Wistar rats; 10 mg/kg i.p.
  Locomotor activity score: 2.4 ± 0.4
  Stereotypy score: 2.4 ± 0.2
Wistar rats; 50 mg/kg i.p., P < 0.01
  Locomotor activity score: 2.2 ± 0.4
  Stereotypy score: 2.0 ± 0.3
Wistar rats; 100 mg/kg i.p., P < 0.01
  Locomotor activity score: 0.7 ± 0.3
  Stereotypy score: 0.8 ± 0.3
Wistar rats; 200 mg/kg i.p., P < 0.01
  Locomotor activity score: 1.5 ± 0.3
  Stereotypy score: 1.3 ± 0.4
Wistar rats
  Dose dependence of locomotor activity and stereotypy score: the scores lessen with the decrease of the dose
  Control of locomotor activity and stereotypy score: nearly controlled
  Statistical significance of lowering of locomotor activity and stereotypy score: statistical significant difference (P<0.01) is found

## CCCCC(=O)NCC(=O)O [2-pentanoyl amino acetic acid]
GABA system
  Anticonvulsant functions for convulsion induced with bicuculline: anticonvulsant functions

## CCCCCCCCCCCCCC(=O)N[C@H](CO)C(=O)O [NMD-Ser, N-myristoyl-D-serine]
Glycine binding site
  Locomotor activity and stereotypy score observed at a dose of N-myristoyl-D-serine alone, when dosed with 7-chlorokynurenic acid: are not observed
Wistar rats; 1 mg/kg i.p.
  Locomotor activity score: 3.7 ± 0.2
  Stereotypy score: 3.2 ± 0.3
Wistar rats; 10 mg/kg i.p.
  Locomotor activity score: 3.3 ± 0.2
  Stereotypy score: 3.2 ± 0.3
Wistar rats; 50 mg/kg i.p., P < 0.01
  Locomotor activity score: 2.0 ± 0.3
  Stereotypy score: 1.7 ± 0.2
Wistar rats; 100 mg/kg i.p., P < 0.01
  Locomotor activity score: 1.5 ± 0.5
  Stereotypy score: 1.2 ± 0.3
Wistar rats; 200 mg/kg i.p., P < 0.01
  Locomotor activity score: 1.5 ± 0.3
  Stereotypy score: 1.5 ± 0.2
Wistar rats
  Dose dependence of locomotor activity and stereotypy score: the scores lessen with the decrease of the dose
  Control of locomotor activity and stereotypy score: nearly controlled
  Statistical significance of lowering of locomotor activity and stereotypy score: statistical significant difference (P<0.01) is found

## CCCCC(=O)N[C@H](CO)C(=O)O [N-pentanoyl-D-serine]
Wistar rats
  Effect on locomotor activity and stereotypy score compared with NMD-Ser and NMD-Ala: the same effect is observed

## NCC(=O)O [glycine]
[2]
  Passage through blood brain barrier: can not pass through blood brain barrier

## CCCCCNCC(N)=O [2-n-pentyl amino aceto amide]
GABA system
  Anticonvulsant functions for convulsion induced with bicuculline: anticonvulsant functions

## CCCCCCCC/C=C\CCCCCCCC(=O)N[C@H](CO)C(=O)O [N-oleoyl-D-serine]
Wistar rats
  Effect on locomotor activity and stereotypy score compared with NMD-Ser and NMD-Ala: the same effect is observed
